These results are taken from patent US8207189B2, “Compound having affinity for amyloid” (Nihon Medi-Physics Co., Ltd., priority 2007, dated 2012).

Molecules are shown by their SMILES.

For data set [1] the following is noted: normal mice, [125I]-labeled, cited from earlier work; for transfer into brain: 2 minutes after administration.
For data set [2], the system named is Salmonella typhimurium TA98. Description: reverse mutation test (Ames test), TA98. It is filed as cell-based. As to the method: (§1) In order to examine gene mutagenicity of Compound 3, 5 and 8, reverse mutation test using Salmonella typhimurium TA98 and TA100 (hereinafter referred to as Ames test) was conducted.
(§2) The test was conducted without addition of S9mix and with addition of S9mix. Dimethylsulfoxide (DMSO) was used as a negative control. A positive control was 2-(2-furyl)-3-(5-nitro-2-furyl)acrylamide (hereinafter referred to as AF-2) in case S9mix was not added, and 2-aminoanthracene (hereinafter referred to as 2-AA) in case S9mix was added.
(§3) As a sample solution to be added to a test plate, each compound was dissolved in DMSO to prepare a solution at a concentration of 50 mg/mL, and further, each solution was diluted with DMSO to prepare a solution with 7 dosage (geometric ratio 3). As a sample solution for preparing a sample of positive control, when TA98 was used as a test strain without addition of S9mix, a solution of AF-2 (compound concentration: 1 μg/mL) in DMSO was prepared; when TA100 was used as a test strain without addition of S9mix, a solution of AF-2 (compound concentration: 0.1 μg/mL) in DMSO was prepared; when TA98 was used as a test strain with addition of S9mix, a solution of 2-AA (compound concentration: 5 μg/mL) in DMSO was prepared; and when TA100 was used as a test strain with addition of S9mix, a solution of 2-AA (compound concentration: 10 μg/mL) in DMSO was prepared.
(§4) After each sample solution to be examined and a test strain (TA98 or TA100) were mixed together so as to make the addition amount of each sample to be 0.1 mL/plate, the mixture was multilayered using soft agar on a medium of a test plate, and then incubated at 37° C. for 48 hours. Separately, after each sample solution to be examined, S9mix and a test strain were mixed together so as to make the addition amount of each sample to be 0.1 mL/plate, the mixture was multilayered using soft agar on a medium of a test plate, and then incubated at 37° C. for 48 hours. On the other hand, only DMSO was used as a sample solution to perform the same procedure as above for the negative control.
On the technique in general: The Ames test uses bacterial strains that need an amino acid and regain growth without it when mutated back.

Data set [3] deals with Salmonella typhimurium TA100. The data set is described as follows: reverse mutation test (Ames test), TA100. It is filed as cell-based. The procedure: as §1, §2, §3, §4

Regarding `CN(C)c1ccc(/C=C/c2ccc(I)cc2)cc1` [m-I-SB, (E)-4-dimethylamino-4′-iodostilbene], in data set [1], the transfer into brain result is listed as “transferred into brain” and the “clearance from normal tissues” value is listed as “insufficient in clearance from normal tissues”.

Consider `OCCOc1cccc(-c2cn3cc(I)ccc3n2)c1` [Compound 5, 2-[3′-(2″-hydroxyethoxy)phenyl]-6-iodoimidazo[1,2-a]pyridine], for which, in data set [2], the “Mutagenicity, TA98, With addition of S9mix” value was “Negative” and the “Mutagenicity, TA98, Without addition of S9mix” value is “Negative”. In addition, in data set [3], the “Mutagenicity, TA100, With addition of S9mix” value is on record as “Negative” and the “Mutagenicity, TA100, Without addition of S9mix” value is “Negative”.

Consider `CN(C)c1ccc(-c2nc3ccc(I)cc3s2)cc1` [TZDM, 6-iodo-2-[4′-(N,N-dimethylamino)phenyl]benzothiazole], for which, in data set [1], the transfer into brain result was “transferred into brain” and the “clearance from normal tissues” value is recorded as “insufficient in clearance from normal tissues”.

On to `OCCOc1ccc(-c2cn3cc(I)ccc3n2)cc1` [Compound 3, 2-[4′-(2″-hydroxyethoxy)phenyl]-6-iodoimidazo[1,2-a]pyridine], for which, in data set [2], the “Mutagenicity, TA98, With addition of S9mix” value was “Negative” and the “Mutagenicity, TA98, Without addition of S9mix” value is “Negative”. Moreover, in data set [3], the “Mutagenicity, TA100, With addition of S9mix” value is “Negative” and the “Mutagenicity, TA100, Without addition of S9mix” value is reported as “Negative”.

Regarding `CN(C)c1ccc(-c2nc3ccc(I)cc3o2)cc1` [IBOX, 6-iodo-2-[4′-(N,N-dimethylamino)phenyl]benzoxazole], in data set [1], the transfer into brain result is reported as “transferred into brain” and the “clearance from normal tissues” value was “insufficient in clearance from normal tissues”.

With `CCOc1ccc(-c2cn3cc(I)ccc3n2)cc1` [Compound 8, 2-(4′-ethoxyphenyl)-6-iodoimidazo[1,2-a]pyridine], in data set [2], the “Mutagenicity, TA98, With addition of S9mix” value is reported as “Negative” and the “Mutagenicity, TA98, Without addition of S9mix” value is recorded as “Negative”. Besides, in data set [3], the “Mutagenicity, TA100, With addition of S9mix” value is on record as “Negative” and the “Mutagenicity, TA100, Without addition of S9mix” value is reported as “Negative”.
